Source: patent US20080076729A1, “Interferon-beta gene therapy using an improved, regulated expression system” (Schering Aktiengesellachaft, priority 2005, published 2008)

Assays:
[1] = system: SJL mice with acute EAE; assay: Mouse acute EAE model, daily clinical scoring; assay type: in vivo; settings: Mesopram 9 mg/kg, Prednisolone 2.5 mg/kg, IP twice daily
[2] = target: GAL-4 DBS; settings: read-out: Kd for binding; cited from earlier work

CCCOc1cc([C@]2(C)CNC(=O)O2)ccc1OC [Mesopram, reference compound]
clinical scores of EAE, positive controls ([1]; first study): significantly decreased clinical scores | clinical scores of EAE, positive controls ([1]; second study): significantly decreased clinical scores

C[C@]12C=CC(=O)C=C1CC[C@@H]1[C@@H]2[C@@H](O)C[C@@]2(C)[C@H]1CC[C@]2(O)C(=O)CO [Prednisolone, reference compound]
clinical scores of EAE, positive controls ([1]; first study): significantly decreased clinical scores | clinical scores of EAE, positive controls ([1]; second study): significantly decreased clinical scores

GAL-4 residues 1-100: N-terminal DNA binding fragment of yeast GAL-4 protein
Kd [2]: 3 nM
